Experiments:
Type in all cases: cell-based
[1] = target: T1, M4 muscarinic receptor expressing cells (M4R) (Homo sapiens, UniProt P08173); test: Label-free endpoint response on BIND Reader, M4R cells; conditions: for Endpoint response of M4R cells to ligand: first addition, 10uM carbachol or 50 nM ET-1, M4R cells plated alone
T1 sequence (P08173 1-479): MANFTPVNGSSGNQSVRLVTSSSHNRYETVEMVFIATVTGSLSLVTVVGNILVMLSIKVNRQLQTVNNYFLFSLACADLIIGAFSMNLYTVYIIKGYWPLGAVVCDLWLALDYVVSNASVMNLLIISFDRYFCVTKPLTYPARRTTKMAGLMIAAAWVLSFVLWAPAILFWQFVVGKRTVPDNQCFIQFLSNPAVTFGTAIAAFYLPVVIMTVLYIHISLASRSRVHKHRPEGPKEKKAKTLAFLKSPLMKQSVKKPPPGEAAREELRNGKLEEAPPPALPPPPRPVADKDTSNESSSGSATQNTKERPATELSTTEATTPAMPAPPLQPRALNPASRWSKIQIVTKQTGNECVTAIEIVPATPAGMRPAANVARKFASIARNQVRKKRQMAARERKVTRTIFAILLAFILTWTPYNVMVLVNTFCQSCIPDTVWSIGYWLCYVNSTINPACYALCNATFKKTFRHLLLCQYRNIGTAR
Method: (§1) The response of the two or more cell types to the stimuli or test reagent can be also detected by a BIND® READER (colorimetric resonant reflectance biosensor system). For example, Endothelin receptor expressing cells (ETaR) and M4 muscarinic receptor expressing cells (M4R) were plated on CA2 cellular matrix-coated colorimetric resonant reflectance biosensor plates in starvation media. The cells were pre-treated with antagonists (either atropine to inhibit M4 or BMS to inhibit ETaR) for 30 min. […] Data are referenced to buffer controls.
(§2) The ETaR cells and M4R cells were then treated with a second ligand.

M5/RBL cells = test: Label-free response of 1:1 mixed RBL and M5/RBL cells on BIND SCANNER; conditions: 1:1 mixed population of RBL+M5/RBL cells
Method: RBL and M5/RBL cells were mixed in a 1:1 ratio and were plated in colorimetric resonant reflectance biosensor wells. The cells were allowed to attach to the biosensor and the attachment reaction was detected on a BIND® SCANNER. Acetylcholine was added to the biosensor surface. […] Approximately 50% of a 1:1 mixed population of RBL+M5/RBL cells responded to acetylcholine. The responding cells can be gated and analyzed for quantitative responses (e.g., responses to additional test reagents or stimuli) independent of non-responding population. Therefore, the presence of different types of cells on a biosensor can be detected when their response to a ligand is known.

[2] = target: T2, Endothelin receptor expressing cells (ETaR) (Homo sapiens, UniProt P25101); test: Label-free endpoint response on BIND Reader, ETaR cells; conditions: first addition; 10uM carbachol or 50 nM ET-1; ETaR cells plated alone
T2 sequence (P25101 21-427): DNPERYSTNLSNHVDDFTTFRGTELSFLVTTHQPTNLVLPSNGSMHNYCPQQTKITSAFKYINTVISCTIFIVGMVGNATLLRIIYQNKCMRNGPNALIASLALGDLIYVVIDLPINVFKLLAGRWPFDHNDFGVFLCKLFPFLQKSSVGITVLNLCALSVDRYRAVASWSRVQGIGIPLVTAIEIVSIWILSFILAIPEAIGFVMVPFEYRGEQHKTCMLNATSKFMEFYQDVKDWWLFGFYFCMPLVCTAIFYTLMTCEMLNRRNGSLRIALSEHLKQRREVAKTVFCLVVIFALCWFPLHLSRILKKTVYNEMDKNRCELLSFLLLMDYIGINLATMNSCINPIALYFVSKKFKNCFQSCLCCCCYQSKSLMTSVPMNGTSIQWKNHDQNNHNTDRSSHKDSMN
Method: as §1, §2

Rat MSC cells = test: Rat MSC movement on fibronectin-coated biosensor; conditions: attachment signal zeroed out
Method: Rat MSC cells were added to a biosensor coated with fibronectin. Cell attachment was detected on a colorimetric resonant reflectance biosensor at 3 hours and 16 hours. The attachment signal was zeroed out and the cells were stimulated with SDF-1α or were not stimulated. Movement of the cells can be seen in the right panels of FIG. 12. The darker spots are where the cells were prior to detection and the lighter spots are where the cells are when the reaction was detected. […] An enhanced signal can be seen on the cell edges where movement and/or cell adhesion is occurring. The enhanced signal correlates with the leading edge of the cells as they move across the biosensor as evidenced by time lapse imaging. This is consistent with extracellular matrix-integrin engagement of the cells. […] An approximately 7 to 10 fold improvement in signal to noise is observed.

CXCR4 = target: T3, CXCR4 (Homo sapiens, UniProt P61073); test: Label-free response to SDF-1α on BIND READER; conditions: THP-1 cells, OEM cells, MSC cells; different concentrations
T3 construct: endogenous in cells; host or cells: THP-1 cells, 'OEM' cells, MSC cells
T3 sequence (P61073 whole entry, species assumed): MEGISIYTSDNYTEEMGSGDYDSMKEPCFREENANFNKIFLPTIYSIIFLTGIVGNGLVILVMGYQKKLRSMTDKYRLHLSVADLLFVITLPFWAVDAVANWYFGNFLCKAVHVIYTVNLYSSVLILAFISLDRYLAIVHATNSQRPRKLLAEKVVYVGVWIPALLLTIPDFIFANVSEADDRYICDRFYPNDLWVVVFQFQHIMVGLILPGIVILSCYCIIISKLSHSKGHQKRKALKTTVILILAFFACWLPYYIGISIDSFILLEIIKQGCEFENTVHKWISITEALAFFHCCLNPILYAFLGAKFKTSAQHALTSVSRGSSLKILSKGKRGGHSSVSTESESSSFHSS
Source text: SDF-1α binds to and activates CXCR4, a GPCR. Stem cells will move to tissues releasing gradients of SDF-1α. Damaged tissue releases elevated levels of SDF-1α resulting in increased migration of mesenchymal stem cells to sites of injury. Chemotactic factors induce significant changes in the actin cytoskeleton of cells upon receptor activation. These changes are manifested as directional movement when the chemokine is presented as a gradient. SDF-1α induces the migration of mesenchymal stem cells and osteoblast progenitor cells. Overexpression of CXCR4 results in improved MSC migration and homing to sites of vascular injury.

[3] = target: cells expressing α4/β1 integrin receptors (Homo sapiens, UniProt P05556+P13612); test: Cell attachment PWV shift on ECM ligand coated wells; conditions: for PWV shift of attached cells: immobilized on biosensor surface
cells expressing α4/β1 integrin receptors, sequence (P13612 34-1032): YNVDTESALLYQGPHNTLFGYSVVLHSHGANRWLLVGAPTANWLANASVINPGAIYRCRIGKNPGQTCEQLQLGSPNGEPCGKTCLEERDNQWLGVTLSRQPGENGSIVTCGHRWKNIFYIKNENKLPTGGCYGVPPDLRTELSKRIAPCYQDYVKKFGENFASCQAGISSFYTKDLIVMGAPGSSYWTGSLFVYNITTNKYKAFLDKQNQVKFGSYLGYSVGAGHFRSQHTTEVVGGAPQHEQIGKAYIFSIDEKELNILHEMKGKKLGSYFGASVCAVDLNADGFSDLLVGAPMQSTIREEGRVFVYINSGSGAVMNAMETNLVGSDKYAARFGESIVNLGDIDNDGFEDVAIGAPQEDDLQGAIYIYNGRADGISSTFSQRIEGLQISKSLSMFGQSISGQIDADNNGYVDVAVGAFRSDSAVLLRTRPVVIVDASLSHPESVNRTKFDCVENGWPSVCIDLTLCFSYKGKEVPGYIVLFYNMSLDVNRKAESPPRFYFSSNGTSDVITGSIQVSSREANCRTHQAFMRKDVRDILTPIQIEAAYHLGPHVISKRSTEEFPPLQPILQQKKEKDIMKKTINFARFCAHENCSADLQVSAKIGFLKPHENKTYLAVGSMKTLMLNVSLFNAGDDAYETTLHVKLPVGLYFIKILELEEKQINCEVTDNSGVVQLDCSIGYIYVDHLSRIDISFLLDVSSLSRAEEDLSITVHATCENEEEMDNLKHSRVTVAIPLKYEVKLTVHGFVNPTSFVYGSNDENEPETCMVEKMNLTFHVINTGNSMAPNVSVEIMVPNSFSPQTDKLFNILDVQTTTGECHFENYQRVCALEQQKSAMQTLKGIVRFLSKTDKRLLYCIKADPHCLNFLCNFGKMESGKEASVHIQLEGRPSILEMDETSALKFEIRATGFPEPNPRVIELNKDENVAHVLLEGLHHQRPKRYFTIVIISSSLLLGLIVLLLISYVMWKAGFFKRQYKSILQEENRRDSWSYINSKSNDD
cells expressing α4/β1 integrin receptors, sequence (P05556 21-798): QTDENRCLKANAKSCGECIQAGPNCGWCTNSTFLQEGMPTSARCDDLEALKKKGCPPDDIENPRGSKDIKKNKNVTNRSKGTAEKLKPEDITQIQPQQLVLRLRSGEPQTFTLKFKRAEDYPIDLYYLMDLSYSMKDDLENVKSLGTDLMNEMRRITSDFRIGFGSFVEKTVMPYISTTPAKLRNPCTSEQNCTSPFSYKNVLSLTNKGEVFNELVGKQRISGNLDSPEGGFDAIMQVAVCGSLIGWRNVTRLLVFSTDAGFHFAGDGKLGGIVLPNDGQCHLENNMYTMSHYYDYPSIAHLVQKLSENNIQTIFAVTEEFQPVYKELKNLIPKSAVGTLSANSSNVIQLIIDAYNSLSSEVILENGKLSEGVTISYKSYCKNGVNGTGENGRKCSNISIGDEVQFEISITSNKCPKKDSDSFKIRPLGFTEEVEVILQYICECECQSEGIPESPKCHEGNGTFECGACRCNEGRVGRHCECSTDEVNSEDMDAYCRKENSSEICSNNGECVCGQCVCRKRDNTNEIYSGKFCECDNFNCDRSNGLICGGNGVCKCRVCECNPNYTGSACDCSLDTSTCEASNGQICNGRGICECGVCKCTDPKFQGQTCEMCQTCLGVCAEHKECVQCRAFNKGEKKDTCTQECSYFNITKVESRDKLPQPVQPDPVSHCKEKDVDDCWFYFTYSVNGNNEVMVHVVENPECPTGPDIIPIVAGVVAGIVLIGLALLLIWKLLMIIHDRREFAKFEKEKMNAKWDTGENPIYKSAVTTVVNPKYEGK
Source text: For example, cells expressing α4/β1 integrin receptors, which are known to bind to fibronectin ligands, but not to collagen or laminin ligands, generate a PWV shift on fibronectin coated wells that is about 8 to 10 times greater than the PWV shift observed on collagen or laminin surfaces.

rat MSC cell = test: Rat MSC attachment to ECM-coated biosensors; conditions: ovalbumin, fibronectin, laminin or collagen biosensors
Source text: In certain cases cells, such as stem cell or primary cells, have varying reactions to ligands depending upon what extracellular matrix component is present on the surface of the biosensor. This preference can be determined for each type of cell. […] The mP-M5 and mP-M4 cells show the best reaction to the ligands when they are on biosensors comprising fibronectin or collagen. […] Cells can be tested to determine the best ligand/ECM coating for attachment to the biosensor.

CN1[C@@H]2CC[C@H]1C[C@@H](OC(=O)C(CO)c1ccccc1)C2 (stereo partly drawn) [Atropine, atropine]
Inhibition of carbachol response in M4R cells ([1]; antagonist pre-treatment 30 min, then 10uM carbachol): completely inhibited

CC(=O)OCC[N+](C)(C)C [acetylcholine]
Fraction of mixed cell population responding (M5/RBL cells): Approximately 50%

C[N+](C)(C)CCOC(N)=O [carbachol]
Endpoint response of M4R cells to ligand [1]: respond to carbachol | Response of M4R cells to second ligand ([1]; second addition, after ET-1 stimulation): respond to carbachol, even after ET-1 stimulation | Endpoint response of ETaR cells to ligand [2]: not to carbachol

ET-1: ligand to which Endothelin receptor expressing cells (ETaR) respond
Endpoint response of M4R cells to ligand [1]: not to ET-1

SDF-1α
Cell movement and morphology after stimulation (Rat MSC cells): movement of the cells is seen along with a spreading out of the cells | Label-free cell response (CXCR4): rapid and robust response

collagen
PWV shift of attached cells [3]: resembles background cell attachment signal | Cell attachment compared with other surfaces (rat MSC cell): better than the other surfaces

fibronectin
PWV shift relative to collagen or laminin surfaces ([3]; coated wells): 8 to 10 times

laminin
PWV shift of attached cells [3]: resembles background cell attachment signal

— US20120058507A1, “Clonal Derivation and Cell Culture quality Control Screening Methods” (SRU Biosystems, Inc., priority 2009, published 2012)
